Literature values in patent publication US9220759B2, “Treatment of diabetic patients with a drug eluting stent and adjunctive therapy” (Abbott Cardiovascular Systems Inc., priority 2012, dated 2015).

System: restenosis after bare metal stent implantation
Settings: diabetic patients prescribed the drug, compared to the control group, study of limited size

SMILES: CN(CCOc1ccc(CC2SC(=O)NC2=O)cc1)c1ccccn1 (stereo not shown) [rosiglitzone, rosiglitazone]
- rate of restenosis: reduction in the rate of restenosis
